Source: patent US10538555B2, “Macrocyclic inhibitors of the PD-1/PD-L1 and CD80(B7-1)/PD-L1 protein/protein interactions” (BRISTOL-MYERS SQUIBB COMPANY, priority 2014, dated 2020)
*1 amine or outer side, *2 acyl side, *3 side chain or, on linkers, in order; H or OH if unused. Where a SMILES comes first, the peptide text is derived from it. Bridges are numbered along the chain shown (N, C = ends). [ ]: non-standard residue; d: D form. ξ: configuration not given here. Trp(1-CH2COOH) = N[C@@H](Cc1cn(CC(=O)O)c2ccccc12)C(=O)O; Trp(βS-Me) = C[C@@H](c1c[nH]c2ccccc12)[C@H](N)C(=O)O; Phe(3,4,5-F3) = N[C@@H](Cc1cc(F)c(F)c(F)c1)C(=O)O; X6 = NC(=O)CCC(=O)[C@H](CSCC(=O)[*:2])N[*:1]; NMePhe(4-F) = CN[C@@H](Cc1ccc(F)cc1)C(=O)O; Phe(4-F) = N[C@@H](Cc1ccc(F)cc1)C(=O)O; 1Nal = N[C@@H](Cc1cccc2ccccc12)C(=O)O; d(cisHyp) = O=C(O)[C@H]1C[C@@H](O)CN1; Hyp = O=C(O)[C@@H]1C[C@@H](O)CN1; NMeF = CN[C@@H](Cc1ccccc1)C(=O)O; X1 = O=C([C@H]1COCCN1[*:1])[*:2]; dHyp = O=C(O)[C@H]1C[C@H](O)CN1; NMeL = CN[C@@H](CC(C)C)C(=O)O; NMehSer = CN[C@@H](CCO)C(=O)O; NMeNle = CCCC[C@H](NC)C(=O)O; NMeM = CN[C@@H](CCSC)C(=O)O; hSer = N[C@@H](CCO)C(=O)O; NMeA = CN[C@@H](C)C(=O)O; Orn = NCCC[C@H](N)C(=O)O; Dab = NCC[C@H](N)C(=O)O; Dap = NC[C@H](N)C(=O)O; ξC = NC(CS)C(=O)O; Sar = CNCC(=O)O

target: T1, Human PD-L1/PD-1 (Homo sapiens, UniProt Q9NZQ7); assay: HTRF Human PD-L1/PD-1 binding assay (PD-1-Ig/PD-L1-His); settings: PD-L1-His 10 nM, PD-1-Ig 20 nM; class symbol; read-out: HTRF Human PD-L1/PD-1 Binding Assay IC50 Range
T1 construct: TVMV protease cleavage site (C); made in house; host or cells: HEK293T cells
How it was run: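 HTRF competition using HEK293T-expressed human PD-1(25-167)-Ig at 20 nM and PD-L1(18-239)-His at 10 nM, compound incubated first with PD-L1 for 15 min, then with PD-1 for 15 min. Signal read as 665/620 nm ratio 30 min after adding Eu anti-Ig and APC anti-His antibodies.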

T1 sequence (Q9NZQ7 with tags, fused parts or gaps): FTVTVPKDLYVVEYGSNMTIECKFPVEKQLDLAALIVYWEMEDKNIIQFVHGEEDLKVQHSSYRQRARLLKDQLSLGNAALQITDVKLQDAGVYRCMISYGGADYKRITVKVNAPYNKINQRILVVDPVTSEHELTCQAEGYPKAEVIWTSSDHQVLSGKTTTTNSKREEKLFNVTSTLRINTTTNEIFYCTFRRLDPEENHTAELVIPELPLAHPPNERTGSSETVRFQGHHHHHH

Compound | IC50 [nM]
CCCC[C@H]1C(=O)N2CCC[C@@H]2C(=O)N[C@@H](CC(=O)O)C(=O)N[C@@H](C(C)C)C(=O)N(C)[C@@H](CC(C)C)C(=O)N[C@@H](CCC(N)=O)C(=O)N2CCC[C@@H]2C(=O)N[C@@H](Cc2c[nH]c3ccccc23)C(=O)N[C@@H](Cc2ccc(O)cc2)C(=O)N[C@@H](CCCN)C(=O)N[C@H](C(=O)NCC(N)=O)CSCC(=O)N[C@@H](Cc2ccc(F)cc2)C(=O)N(C)[C@@H](Cc2ccccc2)C(=O)N1C [Example 9255] ({CH2CO}-[Phe(4-F)][NMeF][NMeNle][dP]DV[NMeL]Q[dP]WY[Orn]CG-NH2; thioether N-13) | 1000 to 10000
CSCC[C@H]1C(=O)N2C[C@H](O)C[C@H]2C(=O)N[C@@H](CC(=O)O)C(=O)N[C@@H](C(C)C)C(=O)N(C)[C@@H](Cc2ccccc2)C(=O)N[C@@H](Cc2ccc(O)cc2)C(=O)N2C[C@H](O)C[C@H]2C(=O)N[C@@H](Cc2c[nH]c3ccccc23)C(=O)N[C@@H](Cc2ccc(O)cc2)C(=O)N[C@@H](CC(C)C)C(=O)N[C@H](C(=O)NCC(N)=O)CSCC(=O)N[C@@H](Cc2ccccc2)C(=O)N(C)[C@@H](Cc2ccccc2)C(=O)N1C [Example 9166] ({CH2CO}-F[NMeF][NMeM][Hyp]DV[NMeF]Y[Hyp]WYLCG-NH2; thioether N-13) | 1000 to 10000
CCCC[C@H]1C(=O)N(C)[C@@H](CCCC)C(=O)N[C@@H](CCCN)C(=O)NC(C(=O)NCC(N)=O)CSCC(=O)N[C@@H](Cc2ccc(O)cc2)C(=O)N(C)[C@@H](C)C(=O)N[C@@H](CC(N)=O)C(=O)N2CCC[C@H]2C(=O)N[C@@H](CC(N)=O)C(=O)N[C@@H](CC(C)C)C(=O)N2C[C@H](O)C[C@H]2C(=O)N[C@@H](Cc2c[nH]c3ccccc23)C(=O)N[C@@H](CO)C(=O)N[C@@H](Cc2c[nH]c3ccccc23)C(=O)N1C (some centres unmarked) [Example 9157] ({CH2CO}-Y[NMeA]NPNL[Hyp]WSW[NMeNle][NMeNle][Orn][ξC]G-NH2; thioether N-14) | 1 to 9.9
CCCC[C@H]1C(=O)N(C)[C@@H](CCCC)C(=O)N[C@@H](C)C(=O)N[C@H](C(=O)NCC(N)=O)CSCC(=O)N[C@@H](Cc2ccc(O)cc2)C(=O)N(C)[C@@H](C)C(=O)N[C@@H](CC(N)=O)C(=O)N2CCC[C@H]2C(=O)N[C@@H](Cc2cnc[nH]2)C(=O)N[C@@H](CCC(N)=O)C(=O)N2C[C@H](O)C[C@H]2C(=O)N[C@@H](Cc2c[nH]c3ccccc23)C(=O)N[C@@H](CO)C(=O)N[C@@H](Cc2cccc3ccccc23)C(=O)N1C [Example 1289] ({CH2CO}-Y[NMeA]NPHQ[Hyp]WS[1Nal][NMeNle][NMeNle]ACG-NH2; thioether N-14) | 1 to 9.9
CCCC[C@H]1C(=O)N[C@@H](CC(N)=O)C(=O)N2CCC[C@H]2C(=O)N[C@@H](CO)C(=O)N[C@@H](CCO)C(=O)N2C[C@H](O)C[C@H]2C(=O)N[C@@H](Cc2c[nH]c3ccccc23)C(=O)N[C@@H](CCN)C(=O)N[C@@H](Cc2c[nH]c3ccccc23)C(=O)N(C)[C@@H](C)C(=O)N(C)CC(=O)N[C@@H](CCCNC(=N)N)C(=O)NC(C(=O)NCC(N)=O)CSCC(=O)N[C@@H](Cc2ccc(O)cc2)C(=O)N1C (some centres unmarked) [Example 10206] ({CH2CO}-Y[NMeNle]NPS[hSer][Hyp]W[Dab]W[NMeA][Sar]R[ξC]G-NH2; thioether N-14) | 1000 to 10000

Further lines, results first:

IC50 [nM] | Compound
1 to 9.9 | CCCC[C@H]1C(=O)N(C)[C@@H](CCCC)C(=O)N[C@@H](CN)C(=O)N[C@H](C(=O)NCC(N)=O)CSCC(=O)N[C@@H](Cc2ccc(O)cc2)C(=O)N(C)[C@@H](C)C(=O)N[C@@H](CC(N)=O)C(=O)N2CCC[C@H]2C(=O)N[C@@H](CN)C(=O)N[C@@H](CC(C)C)C(=O)N2C[C@H](O)C[C@H]2C(=O)N[C@@H](Cc2c[nH]c3ccccc23)C(=O)N[C@@H](CCN)C(=O)N[C@@H](Cc2cn(CC(=O)O)c3ccccc23)C(=O)N1C [Example 6303] ({CH2CO}-Y[NMeA]NP[Dap]L[Hyp]W[Dab][Trp(1-CH2COOH)][NMeNle][NMeNle][Dap]CG-NH2; thioether N-14)
1 to 9.9 | COCC[C@H]1C(=O)N2C[C@@H](O)C[C@@H]2C(=O)N[C@@H](CC(=O)O)C(=O)N[C@@H](C(C)C)C(=O)N(C)[C@@H](Cc2ccccc2)C(=O)N[C@@H](Cc2ccc(O)cc2)C(=O)N2CCOC[C@@H]2C(=O)N[C@@H](Cc2c[nH]c3ccccc23)C(=O)N[C@@H](Cc2ccc(O)cc2)C(=O)N[C@@H](CC(C)C)C(=O)N[C@H](C(=O)NCC(N)=O)CSCC(=O)N[C@@H](Cc2cc(F)c(F)c(F)c2)C(=O)N(C)[C@@H](Cc2ccccc2)C(=O)N1C [Example 9264] ({CH2CO}-[Phe(3,4,5-F3)][NMeF][NMehSer](Me)[dHyp]DV[NMeF]Y[X1]WYLCG-NH2; thioether N-13)
1 to 9.9 | CCCC[C@H]1C(=O)N2C[C@@H](O)C[C@@H]2C(=O)N[C@@H](CC(=O)O)C(=O)N[C@@H](C(C)C)C(=O)N(C)[C@@H](Cc2ccccc2)C(=O)N[C@@H](CCC(=O)O)C(=O)N2CCOC[C@@H]2C(=O)N[C@@H](Cc2cn(CC(=O)O)c3ccccc23)C(=O)N[C@@H](Cc2ccc(O)cc2)C(=O)N[C@@H](CCN)C(=O)N[C@H](C(=O)CCC(N)=O)CSCC(=O)N[C@@H](Cc2cc(F)c(F)c(F)c2)C(=O)N(C)[C@@H](Cc2ccccc2)C(=O)N1C [Example 9271] (cyclo(DV[NMeF]E[X1][Trp(1-CH2COOH)]Y[Dab][X6][Phe(3,4,5-F3)][NMeF][NMeNle][dHyp]))
1 to 9.9 | CCCC[C@H]1C(=O)N2C[C@H](O)C[C@@H]2C(=O)N[C@@H](CC(=O)O)C(=O)N[C@@H](C(C)C)C(=O)N(C)[C@@H](Cc2ccccc2)C(=O)N[C@@H](CCC(=O)O)C(=O)N2CCOC[C@@H]2C(=O)N[C@@H](Cc2c[nH]c3ccccc23)C(=O)N[C@@H](Cc2ccc(O)cc2)C(=O)N[C@@H](CCCN)C(=O)N[C@H](C(=O)NCC(N)=O)CSCC(=O)N[C@@H](Cc2cc(F)c(F)c(F)c2)C(=O)N(C)[C@@H](Cc2ccc(F)cc2)C(=O)N1C [Example 10590] ({CH2CO}-[Phe(3,4,5-F3)][NMePhe(4-F)][NMeNle][d(cisHyp)]DV[NMeF]E[X1]WY[Orn]CG-NH2; thioether N-13)
1 to 9.9 | CCCC[C@H]1C(=O)N2C[C@@H](O)C[C@@H]2C(=O)N[C@@H](CC(=O)O)C(=O)N[C@@H](C(C)C)C(=O)N(C)[C@@H](Cc2ccccc2)C(=O)N[C@@H](Cc2ccc(O)cc2)C(=O)N2CCC[C@@H]2C(=O)N[C@@H]([C@@H](C)c2c[nH]c3ccccc23)C(=O)N[C@@H](Cc2ccc(O)cc2)C(=O)N[C@@H](CC(C)C)C(=O)N[C@H](C(=O)NCC(N)=O)CSCC(=O)N[C@@H](Cc2cc(F)c(F)c(F)c2)C(=O)N(C)[C@@H](Cc2ccccc2)C(=O)N1C [Example 10551] ({CH2CO}-[Phe(3,4,5-F3)][NMeF][NMeNle][dHyp]DV[NMeF]Y[dP][Trp(βS-Me)]YLCG-NH2; thioether N-13)

same assay, conditions: PD-L1-His 10 nM, PD-1-Ig 20 nM; read-out: HTRF Human PD-L1/PD-1 Binding Assay IC50

IC50 [nM] | Compound
180 | CCCC[C@H]1C(=O)N[C@@H](CO)C(=O)N[C@H](C(=O)NCC(N)=O)CSCC(=O)N[C@@H](Cc2ccc(O)cc2)C(=O)N(C)[C@@H](C)C(=O)N[C@@H](CC(N)=O)C(=O)N2CCC[C@H]2C(=O)N[C@@H](Cc2c[nH]cn2)C(=O)N[C@@H](CCC(N)=O)C(=O)N2C[C@H](O)C[C@H]2C(=O)N[C@@H](Cc2c[nH]c3ccccc23)C(=O)N[C@@H](CO)C(=O)N[C@@H](Cc2c[nH]c3ccccc23)C(=O)N(C)[C@@H](CCOC)C(=O)N1C [Example 10138] ({CH2CO}-Y[NMeA]NPHQ[Hyp]WSW[NMehSer](Me)[NMeNle]SCG-NH2; thioether N-14)
